Experimental data from ChEMBL document CHEMBL1125430, “Analogues of the dioxolanes dexoxadrol and etoxadrol as potential phencyclidine-like agents. Synthesis and structure-activity relationships” (J Med Chem, 1992).

Organism: Rattus norvegicus
Experiment: Displacement of [3H]TCP from PCP receptor in tissue preparation of whole rat brain minus cerebellum.
Assay type: functional, organism-based
In the case of `CC[C@]1(c2cccc(O)c2)OC[C@H]([C@@H]2CCCCN2)O1`, the Ki is reported as 0.489 µM.
`CCCC[C@]1(c2ccccc2)OC[C@H]([C@@H]2CCCCN2)O1` gave a Ki of 0.2 µM.
Molecule `CC[C@]1(c2cccs2)OC[C@H]([C@@H]2CCCCN2)O1` has a Ki of 0.205 µM.
With `c1ccc2c(c1)-c1ccccc1C21OC[C@H]([C@@H]2CCCCN2)O1` the Ki was 15.5 µM.
`CN[C@@H](C)[C@H]1COC(c2ccccc2)(c2ccccc2)O1` was tested, and the Ki was 0.703 µM.
`CC[C@]1(c2cccc(N=C=S)c2)OC[C@H]([C@@H]2CCCCN2)O1` showed a Ki of 0.59 µM.
In the case of `C[C@H](N)[C@H]1COC(c2ccccc2)(c2ccccc2)O1`, the Ki is reported as 0.607 µM.
Work on `CCC1(CC)OC[C@H]([C@@H]2CCCCN2)O1` yielded a Ki of 87 µM.
For `CCCCCCCCC[C@]1(c2ccccc2)OC[C@H]([C@@H]2CCCCN2)O1`, the Ki was 43 µM.
`CCN1CCCC[C@H]1[C@H]1COC(c2ccccc2)(c2ccccc2)O1` was tested, and the Ki was 6.9 µM.
`C1=Cc2ccccc2C2(OC[C@H]([C@@H]3CCCCN3)O2)c2ccccc21` was tested, and the Ki was 0.325 µM.
`CCC[C@H](NC)[C@H]1COC(c2ccccc2)(c2ccccc2)O1` showed a Ki of 7 µM.
`CC[C@]1(c2ccccc2F)OC[C@H]([C@@H]2CCCCN2)O1` showed a Ki of 0.036 µM.
`c1ccc(C2(c3ccccc3)OC[C@@H]([C@@H]3CCCN3)O2)cc1` was tested, and the Ki was 3.3 µM.
For `CC[C@]1(c2ccccc2O)OC[C@H]([C@@H]2CCCCN2)O1`, the Ki was 0.293 µM.
`c1ccc(C2(c3ccccc3)OC[C@H]([C@@H]3CCCN3)O2)cc1` was tested, and the Ki was over 10 µM.
Work on `CCCCCCN1CCCC[C@H]1[C@H]1COC(c2ccccc2)(c2ccccc2)O1` yielded a Ki of 21.2 µM.
`NC[C@H]1COC(c2ccccc2)(c2ccccc2)O1` gave a Ki of 1.4 µM.
`CC[C@]1(c2ccccc2Cl)OC[C@H]([C@@H]2CCCCN2)O1` gave a Ki of 0.0143 µM.
With `CC[C@]1(c2ccc(Cl)cc2)OC[C@H]([C@@H]2CCCCN2)O1` the Ki was 2.8 µM.
Work on `CC[C@]1(c2ccc(F)cc2)OC[C@H]([C@@H]2CCCCN2)O1` yielded a Ki of 0.649 µM.
`CCCN1CCCC[C@H]1[C@H]1COC(c2ccccc2)(c2ccccc2)O1` gave a Ki of 6.8 µM.
Work on `CNC[C@H]1COC(c2ccccc2)(c2ccccc2)O1` yielded a Ki of 7.3 µM.
In the case of `CC(C)[C@]1(c2ccccc2)OC[C@H]([C@@H]2CCCCN2)O1`, the Ki is reported as 0.045 µM.
`CN1CCCC[C@H]1[C@H]1COC(c2ccccc2)(c2ccccc2)O1` was tested, and the Ki was 4.4 µM.
`CC[C@]1(c2cccc(N)c2)OC[C@H]([C@@H]2CCCCN2)O1` showed a Ki of 1.23 µM.
Work on `CC[C@]1(c2cccc(Cl)c2)OC[C@H]([C@@H]2CCCCN2)O1` yielded a Ki of 0.059 µM.
`c1ccc(C2(c3ccccc3)CCC(C3CCCCN3)C2)cc1` (single isomer, unassigned; 40b) showed a Ki of 8.3 µM.
`C=CCN1CCCC[C@H]1[C@H]1COC(c2ccccc2)(c2ccccc2)O1` gave a Ki of 15.2 µM.
`c1ccc(C2(c3ccccc3)CCC(C3CCCCN3)C2)cc1` (single isomer, unassigned; 40a) showed a Ki of 52 µM.
`c1ccc(C2(N3CCCCC3)CCCCC2)cc1` [PHENCYCLIDINE] showed a Ki of 0.08 µM.
With `c1ccc(C2(c3ccccc3)OCC(C3CCCCN3)CO2)cc1` (stereo not drawn) the Ki was over 100 µM.
In the case of `CCC[C@H](N)[C@H]1COC(c2ccccc2)(c2ccccc2)O1`, the Ki is reported as 3.45 µM.
With `CCC[C@]1(c2ccccc2)OC[C@H]([C@@H]2CCCCN2)O1` the Ki was 0.069 µM.
`c1ccc([C@H]2OC[C@H]([C@@H]3CCCCN3)O2)cc1` gave a Ki of 25 µM.
For `CCN[C@@H](C)[C@H]1COC(c2ccccc2)(c2ccccc2)O1`, the Ki was 9 µM.
With `c1ccc(CN2CCCC[C@H]2[C@H]2COC(c3ccccc3)(c3ccccc3)O2)cc1` the Ki was 10.1 µM.
For `CC[C@]1(c2ccsc2)OC[C@H]([C@@H]2CCCCN2)O1`, the Ki was 0.124 µM.
In the case of `CC[C@]1(c2ccc(O)cc2)OC[C@H]([C@@H]2CCCCN2)O1`, the Ki is reported as 19.9 µM.
`CC[C@]1(c2ccccc2)OC[C@H]([C@@H]2CCCCN2)O1` [ETOXADROL] was tested, and the Ki was 0.107 µM.
Molecule `CCNC[C@H]1COC(c2ccccc2)(c2ccccc2)O1` has a Ki of 8.4 µM.
For `C[C@]1(c2ccccc2)OC[C@H]([C@@H]2CCCCN2)O1`, the Ki was 0.847 µM.
Work on `CC[C@]1(c2cccc([N+](=O)[O-])c2)OC[C@H]([C@@H]2CCCCN2)O1` yielded a Ki of 1.32 µM.
